Test results from ChEMBL document CHEMBL1212769, “Multiple-dose safety, tolerability, and pharmacokinetics of oral nemonoxacin (TG-873870) in healthy volunteers” (Antimicrob Agents Chemother, 2010).

How the values were obtained:
Homo sapiens [1] = test: Toxicity in human assessed as occurrence of diarrhea at 500 […], po administered as single dose; type: organism-based; parameters: route oral; settings: in vivo
[2] = AUC (0 to 24 hrs) in human at 1000 […], po measured on day 1; type: ADME, organism-based; parameters: time < 24 hr, dose 1000 mg/kg, route oral; settings: plasma
[3] = Renal clearance in human at 750 […], po measured on day 1; type: ADME, organism-based, Kidney; parameters: route oral; settings: in vivo, read-out: CL_renal (converted)
[4] = AUC (0 to last) in human at 75 mg/kg, po measured on day 1; type: ADME, organism-based; parameters: time 0 - last, dose 75 mg/kg, route oral; settings: plasma
[5] = Clearance in human assessed as compound recovered in urine at 750 mg/kg, po measured on day 10 up to 24 hrs post dose; type: ADME, organism-based; parameters: dose 750 mg/kg, route oral; settings: read-out: amount in urine
[6] = AUC (0 to last) in human at 500 mg/kg, po measured on day 10; type: ADME, organism-based; parameters: time 0 - last, dose 500 mg/kg, route oral; settings: plasma
[7] = Oral clearance in human at 500 mg/kg measured on day 1; type: ADME, organism-based; parameters: dose 500 mg/kg; settings: in vivo
[8] = Tmax in human at 250 […], po measured on day 1; type: ADME, organism-based; parameters: route oral; settings: in vivo
[9] = Oral clearance in human at 500 mg/kg measured on day 16; type: ADME, organism-based; parameters: dose 500 mg/kg; settings: in vivo
[10] = AUC (0 to 24 hrs) in human at 75 mg/kg, po measured on day 10; type: ADME, organism-based; parameters: time < 24 hr, dose 75 mg/kg, route oral; settings: plasma
Homo sapiens [11] = test: Toxicity in human assessed as occurrence of pruritus at 250 […], po administered as single dose; type: organism-based; parameters: route oral; settings: in vivo
Homo sapiens [12] = test: Toxicity in human assessed as occurrence of rashes at 75 […], po administered as single dose; type: organism-based; parameters: route oral; settings: in vivo
[13] = Tmax in human at 500 […], po measured on day 10; type: ADME, organism-based; parameters: dose 500 mg/kg, route oral; settings: in vivo
[14] = Renal clearance in human at 500 […], po measured on day 1; type: ADME, organism-based, Kidney; parameters: route oral; settings: in vivo, read-out: CL_renal (converted)
[15] = Oral clearance in human at 1000 […] measured on day 1; type: ADME, organism-based; parameters: dose 1000 mg/kg; settings: in vivo
[16] = AUC (0 to 24 hrs) in human at 500 mg/kg, po measured on day 16; type: ADME, organism-based; parameters: time < 24 hr, dose 500 mg/kg, route oral; settings: plasma
[17] = Oral clearance in human at 1000 […] measured on day 10; type: ADME, organism-based; parameters: dose 1000 mg/kg; settings: in vivo
Homo sapiens [18] = test: Toxicity in human assessed as occurrence of pruritus at 500 […], po administered as single dose; type: organism-based; parameters: route oral; settings: in vivo
[19] = AUC (0 to 24 hrs) in human at 75 mg/kg, po measured on day 1; type: ADME, organism-based; parameters: time < 24 hr, dose 75 mg/kg, route oral; settings: plasma
[20] = Renal clearance in human at 1000 […], po measured on day 10; type: ADME, organism-based, Kidney; parameters: route oral; settings: in vivo, read-out: CL_renal (converted)
[21] = Cmax in human at 750 […], po measured on day 1; type: ADME, organism-based; parameters: dose 750 mg/kg, route oral; settings: in vivo
[22] = Oral clearance in human at 250 mg/kg measured on day 1; type: ADME, organism-based; parameters: dose 250 mg/kg; settings: in vivo
[23] = AUC (0 to 24 hrs) in human at 750 mg/kg, po measured on day 1; type: ADME, organism-based; parameters: time < 24 hr, dose 750 mg/kg, route oral; settings: plasma
[24] = Terminal half life in human at 500 […], po measured on day 10; type: ADME, organism-based; parameters: route oral; settings: in vivo, read-out: beta t1/2 (converted)
[25] = Cmax in human at 1000 […], po measured on day 10; type: ADME, organism-based; parameters: dose 1000 mg/kg, route oral; settings: in vivo
Homo sapiens [26] = test: Toxicity in human assessed as occurrence of abdominal pain at 1000 […], po administered as single dose; type: organism-based, Abdomen; parameters: route oral; settings: in vivo
Homo sapiens [27] = test: Toxicity in human assessed as occurrence of somnolence at 1000 […], po administered as single dose; type: organism-based; parameters: route oral; settings: in vivo
[28] = Renal clearance in human at 1000 […], po measured on day 1; type: ADME, organism-based, Kidney; parameters: route oral; settings: in vivo, read-out: CL_renal (converted)
Homo sapiens [29] = test: Toxicity in human assessed as occurrence of dermatitis at 750 […], po administered as single dose; type: organism-based; parameters: route oral; settings: in vivo
[30] = Cmax in human at 1000 […], po measured on day 1; type: ADME, organism-based; parameters: dose 1000 mg/kg, route oral; settings: in vivo
[31] = Oral clearance in human at 75 mg/kg measured on day 10; type: ADME, organism-based; parameters: dose 75 mg/kg; settings: in vivo
Homo sapiens [32] = test: Toxicity in human assessed as occurrence of pollakiuria at 250 […], po administered as single dose; type: organism-based; parameters: route oral; settings: in vivo
[33] = AUC (0 to last) in human at 250 mg/kg, po measured on day 10; type: ADME, organism-based; parameters: time 0 - last, dose 250 mg/kg, route oral; settings: plasma
[34] = AUC (0 to 24 hrs) in human at 1000 […], po measured on day 10; type: ADME, organism-based; parameters: time < 24 hr, dose 1000 mg/kg, route oral; settings: plasma
[35] = AUC (0 to last) in human at 1000 […], po measured on day 10; type: ADME, organism-based; parameters: time 0 - last, dose 1000 mg/kg, route oral; settings: plasma
[36] = AUC (0 to 24 hrs)in human at 500 mg/kg, po measured on day 10; type: ADME, organism-based; parameters: time < 24 hr, dose 500 mg/kg, route oral; settings: plasma
[37] = Clearance in human assessed as compound recovered in urine at 75 mg/kg, po measured on day 10 up to 24 hrs post dose; type: ADME, organism-based; parameters: dose 75 mg/kg, route oral; settings: read-out: amount in urine
[38] = Terminal half life in human at 75 […], po measured on day 10; type: ADME, organism-based; parameters: route oral; settings: in vivo, read-out: beta t1/2 (converted)
[39] = Tmax in human at 250 […], po measured on day 10; type: ADME, organism-based; parameters: dose 250 mg/kg, route oral; settings: in vivo
Homo sapiens [40] = test: Toxicity in human assessed as occurrence of somnolence at 750 […], po administered as single dose; type: organism-based; parameters: route oral; settings: in vivo
[41] = Clearance in human assessed as compound recovered in urine at 1000mg/kg, po measured on day 10 up to 24 hrs post dose; type: ADME, organism-based; settings: read-out: amount in urine
[42] = AUC(0 to last) in human at 500 mg/kg, po measured on day 1; type: ADME, organism-based; parameters: time 0 - last, dose 500 mg/kg, route oral; settings: plasma
[43] = Tmax in human at 75 […], po measured on day 1; type: ADME, organism-based; parameters: route oral; settings: in vivo
[44] = Terminal half life in human at 1000 […], po measured on day 10; type: ADME, organism-based; parameters: route oral; settings: in vivo, read-out: beta t1/2 (converted)
Homo sapiens [45] = species on record: Homo sapiens; test: Plasma protein binding in human; settings: read-out: PPB (converted)
Homo sapiens [46] = test: Toxicity in human assessed as occurrence of abdominal pain at 500 […], po administered as single dose; type: organism-based, Abdomen; parameters: route oral; settings: in vivo
[47] = Oral clearance in human at 250 mg/kg measured on day 10; type: ADME, organism-based; parameters: dose 250 mg/kg; settings: in vivo
[48] = Clearance in human assessed as compound recovered in urine at 500 mg/kg, po measured on day 1 up to 24 hrs post dose; type: ADME, organism-based; parameters: dose 500 mg/kg, route oral; settings: read-out: amount in urine
[49] = Cmax in human at 500 […], po measured on day 16; type: ADME, organism-based; parameters: dose 500 mg/kg, route oral; settings: in vivo
[50] = Tmax in human at 1000 […], po measured on day 10; type: ADME, organism-based; parameters: route oral; settings: in vivo
[51] = Terminal half life in human at 750 […], po measured on day 10; type: ADME, organism-based; parameters: route oral; settings: in vivo, read-out: beta t1/2 (converted)
[52] = Tmax in human at 500 […], po measured on day 16; type: ADME, organism-based; parameters: dose 500 mg/kg, route oral; settings: in vivo
[53] = Clearance in human assessed as compound recovered in urine at 75 mg/kg, po measured on day 1 up to 24 hrs post dose; type: ADME, organism-based; parameters: dose 75 mg/kg, route oral; settings: read-out: amount in urine
[54] = Cmax in human at 75 […], po measured on day 10; type: ADME, organism-based; parameters: dose 75 mg/kg, route oral; settings: in vivo
[55] = Renal clearance in human at 75 […], po measured on day 10; type: ADME, organism-based, Kidney; parameters: route oral; settings: in vivo, read-out: CL_renal (converted)
[56] = Renal clearance in human at 250 […], po measured on day 10; type: ADME, organism-based, Kidney; parameters: route oral; settings: in vivo, read-out: CL_renal (converted)
[57] = Clearance in human assessed as compound recovered in urine at 250 mg/kg, po measured on day 10 up to 24 hrs post dose; type: ADME, organism-based; parameters: dose 250 mg/kg, route oral; settings: read-out: amount in urine

Work on `COc1c(N2C[C@@H](C)C[C@H](N)C2)ccc2c(=O)c(C(=O)O)cn(C3CC3)c12` [NEMONOXACIN] yielded an Activity (Homo sapiens [1]) of 0%, an AUC(0-t) at 24 h [2] of 59600 ng·h/mL and a CL renal [3] of 133 mL/min. The AUC(0-t) [4] was 3780 ng·h/mL, the dose excreted at 24 h [5] was 41.8% and the AUC(0-t) [6] was 46700 ng·h/mL. It also gave a CL/F [7] of 242 mL/min, a Tmax [8] of 1.25 h and a CL/F [9] of 313 mL/min. The AUC at 24 h [10] was 4270 ng·h/mL, the Activity (Homo sapiens [11]) was 0% and the Activity (Homo sapiens [12]) was 0%. For the same compound, the Tmax [13] was 1.31 h, the CL renal [14] was 115 mL/min and the CL/F [15] was 262 mL/min. It also gave an AUC at 24 h [16] of 22700 ng·h/mL, a CL/F [17] of 193 mL/min and an Activity (Homo sapiens [18]) of 0%. The AUC(0-t) at 24 h [19] was 3780 ng·h/mL, the CL renal [20] was 115 mL/min and the Cmax [21] was 5750 ng/mL. The CL/F [22] was 279 mL/min, the AUC(0-t) at 24 h [23] was 46100 ng·h/mL and the half-life [24] was 18.6 h. The Cmax [25] was 8200 ng/mL, the Activity (Homo sapiens [26]) was 0% and the Activity (Homo sapiens [27]) was 0%. The CL renal [28] was 125 mL/min, the Activity (Homo sapiens [29]) was 0% and the Cmax [30] was 7750 ng/mL. The CL/F [31] was 224 mL/min, the Activity (Homo sapiens [32]) was 0% and the AUC(0-t) [33] was 18700 ng·h/mL. For the same compound, the AUC at 24 h [34] was 74800 ng·h/mL, the AUC(0-t) [35] was 88300 ng·h/mL and the AUC at 24 h [36] was 38600 ng·h/mL. It also gave a dose excreted at 24 h [37] of 56.7%, a half-life [38] of 23 h and a Tmax [39] of 1.09 h. The Activity (Homo sapiens [40]) was 0%, the dose excreted at 24 h [41] was 48.6% and the AUC(0-t) [42] was 31600 ng·h/mL. For the same compound, the Tmax [43] was 1.09 h, the half-life [44] was 19.4 h and the fraction unbound (Homo sapiens [45]) was 0.84. For the same compound, the Activity (Homo sapiens [46]) was 0%, the CL/F [47] was 223 mL/min and the dose excreted at 24 h [48] was 42.2%. For the same compound, the Cmax [49] was 2750 ng/mL, the Tmax [50] was 2.07 h and the half-life [51] was 19.7 h. The Tmax [52] was 3.07 h, the dose excreted at 24 h [53] was 56.4% and the Cmax [54] was 514 ng/mL. It also gave a CL renal [55] of 168 mL/min, a CL renal [56] of 129 mL/min and a dose excreted at 24 h [57] of 49.9%.
